Test results reported in patent US10590116B2, “3-indolyl furanoids as inhibitors of matrix metalloproteinase-9 for prevention of gastric ulcer and other inflammatory diseases” (Council of Scientific & Industrial Research, priority 2017, dated 2020).

test system: indomethacin-induced acute gastric ulcers; assay: Protection studies of gastric ulceration in vivo (indomethacin-induced acute gastric ulcer, ulcer index); set-up: species or system Balb/c mice; details: Mus musculus, po, 4 h; 12 mg/kg body weight, indomethacin 80 mg/kg, Balb/c mice
Description: Animal experiments were carried out using Balb/c mice (20-25 g). Animals were anesthetized with ketamine (12 mg/kg b.w.) prior to cervical dislocation. Control and experimental animals were fasted for 6 hr with free access to water.
Balb/c mice (20-25 g) bred in-house with free access to food and water was used for all experiments. Experiments were designed to minimize animal suffering and to use the minimum number associated with valid statistical evaluation. Animals were anesthetized with ketamine (12 mg/kg b.w.) followed by cervical dislocation. Animal experiments were carried out following the guidelines of animal ethics committee of the institute. Control and experimental animals were fasted for 6 h with free access to water.
Before ulcer induction, animals of both control and experimental groups were kept separately in standard controlled conditions. Acute gastric ulcers were induced by oral administration of indomethacin at a dose of 80 mg/kg b.w. The control group received the vehicle only (olive oil), whereas the experimental group received indomethacin for gastric ulceration. After 4 h, the animals were sacrificed and gastric lesions in the fundic stomach were scored and expressed as obtained by counting the number of red bands/dots as follows: 0=no pathology; 1=a small pinhead ulcer spot; and 2-5=a band like lesion of 2-5 mm length. Total score become ˜50 when ulcer is severe. The sum of the total scores as divided by the number of animals was expressed as the mean ulcer index. Formulations were administered orally 30 min prior to indomethacin treatment to check the gastroprotective effect. Among all the chemical compositions of 3-indolyl furanoids synthesized (table 1), compounds 1, 2, 5, 8, 9 and 12 were tested for prevention studies against gastric inflammation in vivo.

SMILES | inhibition in vivo at 12 mg/kg [%]
COc1ccc2[nH]c([S+]([O-])Cc3ncc(C)c(OC)c3C)nc2c1 (centres unmarked) [Omeprazole, reference compound] | 100

same assay, conditions: Mus musculus; 50 mg/kg body weight oral in olive oil, indomethacin 80 mg/kg, scored after 4 h, Balb/c mice

SMILES | inhibition in vivo at 50 mg/kg [%]
Oc1ccc2[nH]cc(-c3cc(-c4ccccc4)oc3-c3ccccc3)c2c1 [compound 1, 3-(2,5-diphenylfuran-3-yl)-1H-indol-5-ol] | 78
COc1ccc2[nH]cc(-c3cc(-c4ccccc4)oc3-c3ccccc3)c2c1 [compound 2, 3-(2,5-diphenylfuran-3-yl)-5-methoxy-1H-indole] | 83
COc1ccc2[nH]cc(-c3cc(-c4ccccc4)oc3-c3ccccc3)c2c1OC [compound 6, 4,5-dimethoxy-3-(2,5-diphenylfuran-3-yl)-1H-indole] | 74
c1ccc(-c2cc(-c3c(-c4ccccc4)[nH]c4ccccc34)c(-c3ccccc3)o2)cc1 [compound 8, 2-phenyl-3-(2,5-diphenylfuran-3-yl)-1H-indole] | 65
Oc1ccccc1-c1[nH]c2ccccc2c1-c1cc(-c2ccccc2)oc1-c1ccccc1 [compound 9, 3-(2,5-diphenylfuran-3-yl)-2-(2-hydroxyphenyl)-1H-indole] | 72
COc1cccc2c1c(-c1cc(-c3ccccc3)oc1-c1ccccc1)cn2C [compound 12, 4-methoxy-1-methyl-3-(2,5-diphenylfuran-3-yl)-1H-indole] | 56

biological target: MMP-9 (Homo sapiens, UniProt P14780); assay: In vitro analysis of anti-ulcer efficacy (structure-activity discussion); details: method not described
Sequence (P14780 94-707, species assumed): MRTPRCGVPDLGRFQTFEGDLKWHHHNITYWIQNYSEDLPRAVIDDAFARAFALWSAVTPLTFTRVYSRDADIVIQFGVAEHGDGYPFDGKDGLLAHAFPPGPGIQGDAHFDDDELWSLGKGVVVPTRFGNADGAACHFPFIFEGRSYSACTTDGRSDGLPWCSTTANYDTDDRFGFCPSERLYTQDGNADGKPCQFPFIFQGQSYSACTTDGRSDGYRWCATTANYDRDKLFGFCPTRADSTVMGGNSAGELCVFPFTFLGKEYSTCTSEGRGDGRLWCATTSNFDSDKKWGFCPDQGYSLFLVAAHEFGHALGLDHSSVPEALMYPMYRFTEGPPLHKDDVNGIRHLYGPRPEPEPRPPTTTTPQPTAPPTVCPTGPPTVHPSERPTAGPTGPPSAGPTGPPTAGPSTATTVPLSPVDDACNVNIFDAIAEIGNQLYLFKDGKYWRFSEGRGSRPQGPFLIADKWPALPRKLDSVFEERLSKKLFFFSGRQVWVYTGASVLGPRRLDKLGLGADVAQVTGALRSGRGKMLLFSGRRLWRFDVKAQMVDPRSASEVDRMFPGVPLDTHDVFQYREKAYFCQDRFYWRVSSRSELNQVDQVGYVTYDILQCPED

SMILES | anti-ulcer efficacy in vitro
C=CCOc1ccc2[nH]cc(-c3cc(-c4ccccc4)oc3-c3ccccc3)c2c1 [compound 3, 5-(allyloxy)-3-(2,5-diphenylfuran-3-yl)-1H-indole] | moderate anti-ulcer efficacy
CCCOc1ccc2[nH]cc(-c3cc(-c4ccccc4)oc3-c3ccccc3)c2c1 [compound 4, 3-(2,5-diphenylfuran-3-yl)-5-propoxy-1H-indole] | moderate anti-ulcer efficacy
Cc1c(-c2cc(-c3ccccc3)oc2-c2ccccc2)c2ccccc2n1C [compound 11, 1,2-dimethyl-3-(2,5-diphenylfuran-3-yl)-1H-indole] | not acceptable to have good anti-ulcer activity
COc1cccc2c1c(-c1cc(-c3ccccc3)oc1-c1ccccc1)cn2C [compound 12, 4-methoxy-1-methyl-3-(2,5-diphenylfuran-3-yl)-1H-indole] | not acceptable to have good anti-ulcer activity
